This assay relates to Sprague dawley (SD) rats. Nature of the assay: Retinal vascular permeability in streptozotocin induced diabetic retinopathy. Format: in vivo, rat. The following applies: intravitreally injected 1-week after streptozotocin, observed at 3 weeks with dextran FITC. The method, then:
Diabetes are induced by performing intraperitoneal injection of 60 mg/kg of streptozotocin (Sigma, St Louis, Mo., USA) into 8-week-old male Sprague dawley (SD) rats (250 g). 3 days later, serum glucose level was measured and rats having serum glucose level of […] and more are selected and used in experiments. Capsiate or capsaicin was intravitreally injected 1-week after the injection of streptozotocin, respectively. 3 weeks after the injection of streptozotocin, 0.5 ml of dextran FITC (25 mg/ml, MW 40K, Sigma, St Louis, Mo., USA) was injected through tail vein of tested rats to imaging retinal vascular pattern. Retinal tissues of the rats are isolated and observed by fluorescent microscopy (Olympus, Tokyo, Japan). The increase of retinal vascular permeability is observed in nonproliferative diabetic retinopathy, proliferative diabetic retinopathy and diabetic macular edema and result from cracks in vascular vessel due to breakdown of blood-retinal barrier (BRB).

As to `COc1cc(CNC(=O)CCCC/C=C/C(C)C)ccc1O` [Capsaicin, capsaicin, reference compound], the “increment of retinal vascular permeability” value is listed as “does not effect”.

These data come from patent publication US9572786B2, “Use of capsiate or dihydrocapsidate” (Catholic University Industry Academy Cooperation Foundation, priority 2007, dated 2017).
